Consider 27 molecules from patent US5973188A (priority 1993, dated 1999).

SMILES strings stand for the structures.

For this experiment, the system named is ADP-induced aggregation of platelets in human PRP. As to the kind of experiment: animal or person. Conditions: Platelet, po, read-out: ID50 (dose administered orally that inhibits by 50% the ADP-induced ex vivo aggregation of platelets in human PRP).
With `CCOC(=O)COc1ccc(C(=O)[C@H](C)NC(=O)c2ccc(/C(N)=N/O)cc2)cc1` [Example 41, ethyl (Z)-(S)-4-[2-[4-(amino-hydroxyimino-methyl)-benzoylamino]-propionyl]-phenoxyacetate], the ED50 turned out to be 0.2 mg/kg.

`COCCOC(=O)COc1ccc(C(=O)[C@H](C)NC(=O)c2ccc(C(=N)NC(=O)OCCOC)cc2)cc1` [Example 40, 2-methoxy-ethyl (S)-^4-[2-[4-[imino-(2-methoxy-ethoxy-carbonylamino)-methyl]-benzoylamino]-propionyl]-phenoxyacetate]: the ED50 was 0.6 mg/kg.

In the case of `CCOC(=O)N=C(N)c1ccc(C(=O)N[C@@H](Cc2ccc(OC(=O)c3ccccc3N)cc2)C(=O)N2CCC(OCC(=O)OC(C)C)CC2)cc1` (mixture of isomers) [Example 50, (E/Z)-(S)-4-[2-[4-(amino-ethoxycarbonylimino-methyl)-benzoylamino]-3-(4-isopropoxy-carbonylmethoxy-piperidin-1-yl)-3-oxo-propyl]-phenyl 2-amino-benzoate], the ED50 was 1.3 mg/kg.

On to `COCCOC(=O)COc1ccc(C(=O)[C@H](C)NC(=O)c2ccc(C(=N)N)cc2)cc1` [Example 22, 2-methoxy-ethyl (S)-4-[2-[4-(amino-imino-methyl)-benzoylamino]-propionyl]-phenoxyacetate], for which the ED50 turned out to be 1.8 mg/kg.

Consider `C[C@H](NC(=O)c1ccc(C(=N)N)cc1)C(=O)c1ccc(OCC(=O)OC2CCCCC2)cc1` [Example 4, cyclohexyl (S)-4-[2-[4-(amino-imino-methyl)-benzoylamino]-propionyl]-phenoxyacetate], for which the ED50 is 2.1 mg/kg.

As to `CCOC(=O)N=C(N)c1ccc(C(=O)N[C@@H](Cc2ccc(OC(=O)OCC)cc2)C(=O)N2CCC(OCC(=O)OC(C)C)CC2)cc1` (mixture of isomers) [Example 49, Isopropyl (E/Z)-(S)-1-[2-[4-(amino-ethoxycarbonylimino-methyl)-benzoylamino]-3-(4-ethoxycarbonyloxy-phenyl)-propionyl]-piperidin-4-yloxyacetate], the ED50 was found to be 1.2 mg/kg.

`CCOC(=O)COc1ccc(C(=O)[C@H](C)NC(=O)c2ccc(C(=N)NC(=O)Oc3ccccc3)cc2)cc1` [Example 36, ethyl (S)-4-[2-[4-(imino-phenoxycarbonylamino-methyl)-benzoylamino]-propionyl]-phenoxyacetate]: the ED50 came out at 0.5 mg/kg.

Consider `CCOC(=O)N=C(N)c1ccc(C(=O)N[C@@H](Cc2ccc(OC(=O)c3ccco3)cc2)C(=O)N2CCC(OCC(=O)OC(C)C)CC2)cc1` (mixture of isomers) [Example 51, (E/Z)-(S)-4-[2-[4-(amino-ethoxycarbonylimino-methyl)-benzoylamino]-3-(4-isopropoxy-carbonylmethoxy-piperidin-1-yl)-3-oxo-propyl]-phenyl furan-2-carboxylate], for which the ED50 came to 3.9 mg/kg.

`CCOC(=O)N=C(N)c1ccc(C(=O)N[C@@H](Cc2ccc(OC(=O)c3ccccc3OC(C)=O)cc2)C(=O)N2CCC(OCC(=O)OC(C)C)CC2)cc1` (mixture of isomers) [Example 53, (E/Z)-(S)-4-[2-[4-(amino-ethoxycarbonylimino-methyl)-benzoylamino]-3-(4-isopropoxy-carbonylmethoxy-piperidin-1-yl)-3-oxo-propyl]-phenyl 2-acetoxy-benzoate]: the ED50 is 1.5 mg/kg.

As to `CCOC(=O)COc1ccc(C(=O)[C@H](C)NC(=O)COC2CCNCC2)cc1` [Example 29, ethyl (S)-4-(2-piperidin-4-yloxyacetylamino-propionyl)-phenoxyacetate], the ED50 amounted to 1 mg/kg.

On to `CC(C)OC(=O)COC1CCN(C(=O)[C@H](C)NC(=O)c2ccc(C(N)=NO)cc2)CC1` (mixture of isomers) [Example 76, isopropyl (E/Z)-(S)-1-[2-[4-(amino-hydroxyimino-methyl)-benzoylamino]-propionyl]-piperidin-4-yloxyacetate], for which the ED50 amounted to 0.2 mg/kg.

Regarding `CCOC(=O)COc1ccc(C(=O)[C@H](C)NC(=O)c2ccc(C(=N)NC(=O)OC3CCOCC3)cc2)cc1` [Example 38, ethyl (S)-4-[2-[4-[imino-(tetrahydro-pyran-4-yloxy-carbonylamino)-methyl]-benzoylamino]-propionyl]-phenoxyacetate], the ED50 came out at 2.9 mg/kg.

Take `COc1ccc(C[C@H](NC(=O)c2ccc(CN)cn2)C(=O)N2CCC(OCC(=O)OC(C)C)CC2)cc1` [Example 72, isopropyl (S)-1-[2-(5-aminomethyl-pyridin-2-ylcarbonylamino)-3-(4-methoxy-phenyl)-propionyl]-piperidin-4-yloxyacetate]: the ED50 was 2.7 mg/kg.

For the molecule `C[C@H](NC(=O)c1ccc(C(=N)N)cc1)C(=O)c1ccc(OCC(=O)OCC2CC2)cc1` [Example 3, cyclopropylmethyl (S)-4-[2-[4-(amino-imino-methyl)-benzoylamino]-propionyl]-phenoxyacetate], the ED50 amounted to 2.7 mg/kg.

In the case of `CCOC(=O)N=C(N)c1ccc(C(=O)N[C@@H](C)C(=O)N2CCC(OCC(=O)OC(C)C)CC2)cc1` (mixture of isomers) [Example 60, isopropyl (E/Z)-(S)-1-[2-[4-(amino-ethoxycarbonylimino-methyl)-benzoylamino]-propionyl]-piperidin-4-yloxyacetate], the ED50 is 0.3 mg/kg.

`CCOC(=O)COc1ccc(C(=O)C(C)NC(=O)c2ccc(C(N)=NO)cc2)cc1` (racemic) [Example 32, ethyl (Z)-(R,S)-4-[2-[4-[amino-hydroxyimino-methyl]-benzoylamino]-propionyl]-phenoxyacetate]: the ED50 was 0.2 mg/kg.

In the case of `CCOC(=O)NC(=N)c1ccc(C(=O)N[C@@H](C)C(=O)c2ccc(OCC(=O)OC3CCOCC3)cc2)cc1` [Example 33, tetrahydropyran-4-yl (S)-4-[2-[4-(ethoxycarbonylamino-imino-methyl)-benzoylamino]-propionyl]-phenoxyacetate], the ED50 was determined as 0.6 mg/kg.

In the case of `C[C@H](NC(=O)c1ccc(C(=N)N)cn1)C(=O)N1CCC(OCC(=O)OC2CCOCC2)CC1` [Example 63, tetrahydropyran-4-yl (S)-1-[2-(5-amino-imino-methyl-pyridin-2-ylcarbonylamino)-propionyl]-piperidin-4-yloxy-acetate], the ED50 was determined as 1.1 mg/kg.

On to `CC(C)COC(=O)NC(=N)c1ccc(C(=O)CC(C)C(=O)N2CCC(OCC(=O)OC(C)C)CC2)cc1` (racemic) [Example 85, isopropyl (RS)-[1-[4-[4-(Isobutoxycarbonylamino-imino-methyl)-phenyl]-2-methyl-4-oxo-butyryl]-piperidin-4-yloxy]-acetate], for which the ED50 is 0.4 mg/kg.

As for `CCOC(=O)NC(=N)c1ccc(C(=O)CCC(=O)N2CCC(OCC(=O)OC(C)C)CC2)cc1` [Example 80, isopropyl [1-[4-[4-(ethoxycarbonylamino-imino-methyl)-phenyl]-4-oxo-butyryl]-piperidin-4-yloxy]-acetate], the ED50 is 0.7 mg/kg.

With `CCOC(=O)COc1ccc(C(=O)C(C)NC(=O)c2ccc(C(N)=NOC(=O)OCC)cc2)cc1` (racemic) [Example 35, ethyl (Z)-(R,S)-4-[2-[4-[amino-ethoxycarbonyloximino-methyl]-benzoylamino]-propionyl]-phenoxyacetate], the ED50 came out at 0.5 mg/kg.

`CCOC(=O)COc1ccc(C(=O)C(CSC)NC(=O)c2ccc(C(=N)NC(=O)OCC)cc2)cc1` (racemic) [Example 27, ethyl (R,S)-4-[2-[4-(ethoxycarbonylamino-imino-methyl)-benzoylamino]-3-methylsulphanyl-propionyl]-phenoxyacetate]: the ED50 was found to be 4.3 mg/kg.

`CCOC(=O)COc1ccc(C(=O)[C@@H](NC(=O)c2ccc(C(=N)N)cc2)[C@@H](C)O)cc1` [Example 20, ethyl (2S,3R)-4-[2-[4-(amino-imino-methyl)-benzoylamino]-3-hydroxy-butyryl]-phenoxyacetate]: the ED50 was found to be 2.4 mg/kg.

In the case of `CCOC(=O)COc1ccc(C(=O)[C@H](CO)NC(=O)c2ccc(C(=N)N)cc2)cc1` [Example 9, ethyl (S)-4-[2-[4-(amino-imino-methyl)-benzoylamino]-3-hydroxy-propionyl]-phenoxyacetate], the ED50 was determined as 1.4 mg/kg.

On to `CCOC(=O)COc1ccc(C(=O)[C@H](COC(C)=O)NC(=O)c2ccc(C(=N)N)cc2)cc1` [Example 24, ethyl (S)-4-[2-[4-(amino-imino-methyl)-benzoylamino]-3-acetoxy-propionyl]-phenoxy-acetate], for which the ED50 stood at 2.3 mg/kg.

Consider `COc1ccc(C[C@H](NC(=O)c2ccc(C(=N)N)cc2)C(=O)c2ccc(OCC(=O)O)cc2)cc1` [Example 11, (S)-4-[2-[4-(amino-imino-methyl)-benzoylamino]-3-(4-methoxy-phenyl)-propionyl]-phenoxyacetic acid], for which the ED50 is 3.1 mg/kg.

Take `CCOC(=O)COc1ccc(C(=O)[C@H](C)NC(=O)c2ccc(C(=N)NC(=O)OCCOC)cc2)cc1` [Example 28, ethyl (S)-4-[2-[4-[imino-2-(methoxy-ethoxycarbonylamino)-methyl]-benzoylamino]-propionyl]-phenoxyacetate]: the ED50 came out at 0.3 mg/kg.
